Measured values reported in patent US9567325B2, “Carboxamide compounds and their use as calpain inhibitors” (AbbVie Deutschland GmbH & Co. KG, priority 2009, dated 2017).

Columns and labels:
Assay type in all cases: biochemical
[1] = molecular target: T1, cathepsin L isolated from human liver (Homo sapiens, UniProt P07711); test: Cathepsin L enzyme inhibition in vitro, kinetic fluorescence assay (selectivity vs calpain); conditions: ratio of Ki values; Z-Phe-Arg-AMC substrate, pH 6.0
T1 construct: 1 nM cathepsin L—isolated from human liver (Calbiochem #219402); purchased Calbiochem 219402; host or cells: human liver (natural source)
Description: (§1) The following solutions and buffers were employed: • HBS (for 40 ml): 800 μl 1M HEPES; 2.16 ml 100 mM KCl; 4.8 ml 1M NaCl; 3.59 ml 5% glucose; 60 μl 1M MgSO4; 400 μl 100 mM Na pyruvate, 28.19 ml water; pH 7.2-7.5. • lysis buffer (for 20 ml): 400 μl 1M Tris pH 8.2; 2.74 ml 1M NaCl; 520 μl 0.5M EDTA; 2 ml 10% triton X-100; 0.8 ml (=1:25) CompletePlus (1 tablet/2 ml H2O); 200 μl 100 mM Pefabloc; 13.34 ml water, pH 8.2. • TBST (10×) (for 11): 100 mM Tris (12.1 g); 1.5M NaCl (87 g); 1% Tween 20 (10 g), adjusted to pH 8. I Enzyme Inhibition In Vitro: • Testing for blockade of the corresponding enzymic activities was carried out by means of kinetic fluorescence assays (excitation 390 nm, emission 460 nm). • Apparent Ki values were calculated from the experimentally determined IC50 values by the Cheng-Prussoff relation assuming a reversible competitive enzyme inhibition. The Km values of the substrates used under the assay conditions indicated above were: 90 μM (Z-Phe-Arg-AMC, cathepsin B), 10 μM (Z-Gly-Pro-Arg-AMC, cathepsin K), 2 μM (Z-Phe-Arg-AMC, cathepsin L), and 30 μM (Z-Val-Val-Arg-AMC, cathepsin S). • The indicated Ki values are averages of the inhibition constants calculated on the basis of 2 to 4 independent dose-effect plots. • The following assays were used: • 1. Calpain I: • 20 nM calpain-1-isolated from human erythrocytes (Calbiochem #208713), 100 μM Suc-Leu-Tyr-AMC (Bachem #1-1355) as substrate in buffer with 62 mM imidazole, 0.3 mM CaCl2, 0.10% CHAPS, 0.05% BSA, 1 mM DTT at pH 7.3 and room temperature. • 2. Cathepsin B: • 0.25 nM cathepsin B—isolated from human liver (Calbiochem #219362), 100 μM Z-Phe-Arg-AMC (Bachem #1-1160) as substrate 50 mM MES, 2 mM EDTA, 0.05% Brij 35, 2.5 mM L-cysteine, pH 6.0, room temperature. • 3. Cathepsin K: • 3 nM cathepsin K-activated from recombinant human procathepsin K from E. coli (Calbiochem #342001), 10 μM Z-Gly-Pro-Arg-AMC (Biomol #P-142) as substrate in 50 mM MES, 2 mM EDTA, 0.05% Brij 35, 2.5 mM L-cysteine, pH 6.0, room temperature. • 4. Cathepsin L: • 1 nM cathepsin L—isolated from human liver (Calbiochem #219402), 2 μM Z-Phe-Arg-AMC (Bachem #1-1160) as substrate in 50 mM MES, 2 mM EDTA, 0.05% Brij 35, 2.5 mM L-cysteine, pH 6.0, room temperature. • 5. Cathepsin S: • 0.5 nM recombinant human cathepsin S from E. coli (Calbiochem #219343), 20 μM Z-Val-Val-Arg-AMC (Bachem #I-1540) as substrate in 50 mM MES, 2 mM EDTA, 0.05% Brij 35, 2.5 mM L-cysteine, pH 6.0, room temperature. • The results of the in vitro determination are indicated in Table 1. The following abbreviations are used in Table 1: • In the “Calpain activity” column, +++ stands for a calpain Ki (Ki(calpain)) of ≦40 nM, and ++ means: 40 nM<Ki(Calpain)≦100 nM and + means 100 nM<Ki(Calpain)≦300 nM. • The “Sel. cat. B” column indicates the Ki(cathepsin B)/Ki(calpain) ratio. In this connection, ++ means a Ki(cathepsin B)/Ki(calpain) ratio of ≧30 and + means 10≦Ki(cathepsin B)/Ki(calpain)<30. • The “Sel. cat. K” column indicates the Ki(cathepsin K)/Ki(calpain) ratio. In this connection, ++ means a Ki(cathepsin K)/Ki(calpain) ratio of ≧30 and + means 10≦Ki(cathepsin K)/Ki(calpain)<30. • The “Sel. cat. L” column indicates the Ki(cathepsin L)/Ki(calpain) ratio. In this connection, ++ means a Ki(cathepsin L)/Ki(calpain) ratio of ≧50 and + means 30≦Ki(cathepsin L)/Ki(calpain)<50. • The “Sel. cat. S” column indicates the Ki(cathepsin S)/Ki(calpain) ratio. In this connection, ++ means a Ki(cathepsin S)/Ki(calpain) ratio of ≧100 and + means 50≦Ki(cathepsin S)/Ki(calpain)<100.

[2] = molecular target: T2, calpain-1 isolated from human erythrocytes (Homo sapiens, UniProt P07384); test: Calpain I enzyme inhibition in vitro, kinetic fluorescence assay; conditions: apparent Ki calculated from IC50 by Cheng-Prussoff; 100 μM Suc-Leu-Tyr-AMC, pH 7.3, room temperature
T2 construct: 20 nM calpain-1-isolated from human erythrocytes (Calbiochem #208713); purchased Calbiochem 208713; host or cells: human erythrocytes (natural source)
T2 sequence (P07384 1-714): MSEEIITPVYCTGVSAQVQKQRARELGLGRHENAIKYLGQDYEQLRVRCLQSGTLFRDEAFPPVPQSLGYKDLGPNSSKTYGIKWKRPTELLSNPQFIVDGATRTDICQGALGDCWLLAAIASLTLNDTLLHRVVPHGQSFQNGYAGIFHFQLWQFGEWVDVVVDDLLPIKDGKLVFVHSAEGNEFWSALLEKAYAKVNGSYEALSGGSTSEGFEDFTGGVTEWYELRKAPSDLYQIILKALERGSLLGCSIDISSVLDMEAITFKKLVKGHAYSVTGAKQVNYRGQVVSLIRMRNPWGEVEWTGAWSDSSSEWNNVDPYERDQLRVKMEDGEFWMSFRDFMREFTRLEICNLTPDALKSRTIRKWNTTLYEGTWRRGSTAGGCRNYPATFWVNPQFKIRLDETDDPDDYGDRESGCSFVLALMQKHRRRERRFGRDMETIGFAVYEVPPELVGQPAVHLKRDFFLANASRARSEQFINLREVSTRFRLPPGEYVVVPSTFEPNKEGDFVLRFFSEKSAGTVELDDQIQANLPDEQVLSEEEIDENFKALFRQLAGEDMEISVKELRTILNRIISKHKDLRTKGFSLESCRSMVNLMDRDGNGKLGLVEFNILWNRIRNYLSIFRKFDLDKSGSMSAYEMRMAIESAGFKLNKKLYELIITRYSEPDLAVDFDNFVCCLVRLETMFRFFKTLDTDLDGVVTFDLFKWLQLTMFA
T2 sequence (P04632 1-268 partner): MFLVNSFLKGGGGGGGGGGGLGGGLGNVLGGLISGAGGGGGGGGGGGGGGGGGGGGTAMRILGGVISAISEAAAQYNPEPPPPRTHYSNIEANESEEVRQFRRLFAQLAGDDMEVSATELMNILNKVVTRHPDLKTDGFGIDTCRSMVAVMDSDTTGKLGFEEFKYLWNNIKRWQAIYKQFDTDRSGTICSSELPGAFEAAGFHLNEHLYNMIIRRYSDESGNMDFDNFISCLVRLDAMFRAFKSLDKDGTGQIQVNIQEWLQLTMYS
Description: as §1

[3] = molecular target: T3, cathepsin B isolated from human liver (Homo sapiens, UniProt P07858); test: Cathepsin B enzyme inhibition in vitro, kinetic fluorescence assay (selectivity vs calpain); conditions: ratio of Ki values; Z-Phe-Arg-AMC substrate, pH 6.0
T3 construct: 0.25 nM cathepsin B—isolated from human liver (Calbiochem #219362); purchased Calbiochem 219362; host or cells: human liver (natural source)
Description: as §1

[4] = molecular target: T4, cathepsin K activated from recombinant human procathepsin K (Homo sapiens, UniProt P43235); test: Cathepsin K enzyme inhibition in vitro, kinetic fluorescence assay (selectivity vs calpain); conditions: ratio of Ki values; Z-Gly-Pro-Arg-AMC substrate, pH 6.0
T4 construct: purchased Calbiochem 342001; host or cells: E. coli
T4 sequence (P43235 115-329): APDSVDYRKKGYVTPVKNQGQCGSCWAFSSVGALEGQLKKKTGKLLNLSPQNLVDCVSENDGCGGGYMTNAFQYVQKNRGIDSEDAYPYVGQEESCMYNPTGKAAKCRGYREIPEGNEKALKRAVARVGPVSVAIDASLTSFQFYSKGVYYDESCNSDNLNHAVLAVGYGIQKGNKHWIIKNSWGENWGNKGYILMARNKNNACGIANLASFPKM
Description: as §1

[5] = molecular target: T5, recombinant human cathepsin S (Homo sapiens, UniProt P25774); test: Cathepsin S enzyme inhibition in vitro, kinetic fluorescence assay (selectivity vs calpain); conditions: ratio of Ki values; Z-Val-Val-Arg-AMC substrate, pH 6.0
T5 construct: purchased Calbiochem 219343; host or cells: E. coli
Description: as §1

T5 sequence (P25774 115-331): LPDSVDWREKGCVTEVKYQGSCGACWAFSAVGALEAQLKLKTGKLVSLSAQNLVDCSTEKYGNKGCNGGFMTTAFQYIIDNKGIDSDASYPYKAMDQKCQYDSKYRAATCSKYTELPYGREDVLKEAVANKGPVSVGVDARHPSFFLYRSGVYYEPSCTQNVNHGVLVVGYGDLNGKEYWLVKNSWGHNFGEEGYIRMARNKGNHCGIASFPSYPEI
T1 sequence (P07711 114-333): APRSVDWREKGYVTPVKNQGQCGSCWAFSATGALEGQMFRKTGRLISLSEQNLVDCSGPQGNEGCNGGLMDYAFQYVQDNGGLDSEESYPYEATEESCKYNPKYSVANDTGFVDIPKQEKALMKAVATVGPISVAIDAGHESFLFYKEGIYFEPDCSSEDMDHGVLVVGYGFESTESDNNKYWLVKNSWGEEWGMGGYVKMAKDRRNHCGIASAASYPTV

| Structure (SMILES) | Sel cat. L (Ki(cathepsin L)/Ki(calpain) ratio) [1] | Ki [2] | Sel cat. B (Ki(cathepsin B)/Ki(calpain) ratio) [3] | Sel cat. K (Ki(cathepsin K)/Ki(calpain) ratio) [4] | Sel cat. S (Ki(cathepsin S)/Ki(calpain) ratio) [5] |
| --- | --- | --- | --- | --- | --- |
| NC(=O)C(=O)C(Cc1ccc(F)cc1)NC(=O)c1cccnc1-c1csc(-c2ccccc2)n1 (stereo not drawn) [Example 15, N-(4-Amino-1-(4-fluorophenyl)-3,4-dioxobutan-2-yl)-2-(2-phenylthiazol-4-yl)nicotinamide] | ++ (++ means a Ki(cathepsin L)/Ki(calpain) ratio of ≧50) | 40 to 100 nM | ++ (++ means a Ki(cathepsin B)/Ki(calpain) ratio of ≧30) | + (+ means 10≦Ki(cathepsin K)/Ki(calpain)<30) | ++ (++ means a Ki(cathepsin S)/Ki(calpain) ratio of ≧100) |
| NC(=O)C(=O)C(Cc1ccccc1)NC(=O)c1cccnc1-c1ncc(-c2ccccc2)[nH]1 (stereo not drawn) [Example 2, N-(4-Amino-3,4-dioxo-1-phenylbutan-2-yl)-2-(5-phenyl-1H-imidazol-2-yl)pyridine-3-carboxamide] |  | 100 to 300 nM |  | + (+ means 10≦Ki(cathepsin K)/Ki(calpain)<30) |  |
| NC(=O)C(=O)C(Cc1ccccc1)NC(=O)c1cccnc1-c1nc2ccccc2o1 (stereo not drawn) [Example 16, N-(4-amino-3,4-dioxo-1-phenylbutan-2-yl)-2-(benzo[d]oxazol-2-yl)nicotinamide] |  | 100 to 300 nM | + (+ means 10≦Ki(cathepsin B)/Ki(calpain)<30) | + (+ means 10≦Ki(cathepsin K)/Ki(calpain)<30) | ++ (++ means a Ki(cathepsin S)/Ki(calpain) ratio of ≧100) |
| NC(=O)C(=O)C(Cc1ccccc1)NC(=O)c1cccnc1-c1nc(-c2ccc(F)cc2)cs1 (stereo not drawn) [Example 4, N-(4-Amino-3,4-dioxo-1-phenylbutan-2-yl)-2-[4-(4-fluorophenyl)-1,3-thiazol-2-yl]pyridine-3-carboxamide] | ++ (++ means a Ki(cathepsin L)/Ki(calpain) ratio of ≧50) | 40 to 100 nM | + (+ means 10≦Ki(cathepsin B)/Ki(calpain)<30) | + (+ means 10≦Ki(cathepsin K)/Ki(calpain)<30) | ++ (++ means a Ki(cathepsin S)/Ki(calpain) ratio of ≧100) |
| NC(=O)C(=O)C(Cc1ccccc1)NC(=O)c1cccnc1-c1csc(-c2ccc(F)cc2)n1 (stereo not drawn) [Example 5, N-(4-Amino-3,4-dioxo-1-phenylbutan-2-yl)-2-[2-(4-fluorophenyl)-1,3-thiazol-4-yl]pyridine-3-carboxamide] | + (+ means 30≦Ki(cathepsin L)/Ki(calpain)<50) | 40 to 100 nM | + (+ means 10≦Ki(cathepsin B)/Ki(calpain)<30) |  | ++ (++ means a Ki(cathepsin S)/Ki(calpain) ratio of ≧100) |
| NC(=O)C(=O)C(Cc1ccccc1)NC(=O)c1cccnc1-c1csc(-c2ccccc2Cl)n1 (stereo not drawn) [Example 8, N-(4-Amino-3,4-dioxo-1-phenylbutan-2-yl)-2-[2-(2-chlorophenyl)-1,3-thiazol-4-yl]pyridine-3-carboxamide] | ++ (++ means a Ki(cathepsin L)/Ki(calpain) ratio of ≧50) | ≤ 40 nM | ++ (++ means a Ki(cathepsin B)/Ki(calpain) ratio of ≧30) | + (+ means 10≦Ki(cathepsin K)/Ki(calpain)<30) | ++ (++ means a Ki(cathepsin S)/Ki(calpain) ratio of ≧100) |
| NC(=O)C(=O)C(Cc1ccccc1)NC(=O)c1cccnc1-c1csc(-c2cccc(C(F)(F)F)c2)n1 (stereo not drawn) [Example 6, N-(4-Amino-3,4-dioxo-1-phenylbutan-2-yl)-2-{2-[3-(trifluoromethyl)phenyl]-1,3-thiazol-4-yl}pyridine-3-carboxamide] | ++ (++ means a Ki(cathepsin L)/Ki(calpain) ratio of ≧50) | ≤ 40 nM | ++ (++ means a Ki(cathepsin B)/Ki(calpain) ratio of ≧30) | + (+ means 10≦Ki(cathepsin K)/Ki(calpain)<30) | ++ (++ means a Ki(cathepsin S)/Ki(calpain) ratio of ≧100) |
